From patent publication US8772576B2, “Herbicide-resistant inoculant strains” (priority 2009, dated 2014)

How the values were obtained:
[1] = system: parent strain ABM201; experiment: Growth of parent strain on Vincent's YEM agar amended with glyphosate; type: cell-based, Bradyrhizobium japonicum
Protocol: (§1) After the plates were sufficiently dry, about 10^8 to 5×10^8 colony-forming units (CFU) of the parent bacteria (ABM201) (Advanced Biological Marketing, Van Wert, Ohio), determined by serial dilution and plating on nonselective medium, were spread with a sterile, bent glass rod. The plates were carefully wrapped with Parafilm® to prevent the desiccation of the agar growth medium during prolonged incubation. The plates were then incubated at room temperature to 30° C. for approximately 2 to 3 weeks.

[2] = system: herbicide resistant mutants of B. japonicum strain ABM 201; experiment: Growth of glyphosate-resistant mutant on Vincent's YEM agar amended with glyphosate; type: cell-based, Bradyrhizobium japonicum; conditions: 80 ppm glyphosate; exemplary embodiment (resistant mutant)
Protocol: as §1
Colonies that developed resembled the parent strain and its growth characteristics on non-selective YEM medium. The colonies were convex, entirely opaque, smooth, and only about 1 mm in diameter after 10-14 days of incubation. Mutant frequency was about 5×10^−7 to 1×10^−6.

With `O=C(O)CNCP(=O)(O)O` [glyphosate, N-(phosphonomethyl)glycine] the “glyphosate concentration that totally inhibits the parent strain” value [1] was “less than 40 ppm” and the “growth and viability on glyphosate” value [2] was “normal growth and viability”.
